PubChem BioAssay (NCI)
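Five compound concentrations were applied to cells in 96-well plates for 48 hours; endpoints were derived by simple linear interpolation of the resulting dose-response curve. GI50 = concentration required for 50% inhibition of growth. At the TGI there is no net growth.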

How the values were obtained:
Assay in all cases: growth of human tumour cells (NCI), 48 h
786-0 renal = tested on: 786-0 renal
A498 renal = tested on: A498 renal
A549 NSCLC = tested on: A549 NSCLC
ACHN renal = tested on: ACHN renal
BT-549 breast = tested on: BT-549 breast
CCRF-CEM leukemia = tested on: CCRF-CEM leukemia
COLO 205 colon = tested on: COLO 205 colon
DU-145 prostate = tested on: DU-145 prostate
EKVX NSCLC = tested on: EKVX NSCLC
HCC-2998 colon = tested on: HCC-2998 colon
HCT-116 colon = tested on: HCT-116 colon
HCT-15 colon = tested on: HCT-15 colon
HL-60(TB) leukemia = tested on: HL-60(TB) leukemia
HOP-62 NSCLC = tested on: HOP-62 NSCLC
HOP-92 NSCLC = tested on: HOP-92 NSCLC
HS 578T breast = tested on: HS 578T breast
HT29 colon = tested on: HT29 colon
K-562 leukemia = tested on: K-562 leukemia
KM12 colon = tested on: KM12 colon
LOX IMVI melanoma = tested on: LOX IMVI melanoma
M14 melanoma = tested on: M14 melanoma
MALME-3M melanoma = tested on: MALME-3M melanoma
MCF7 breast = tested on: MCF7 breast
MDA-MB-231 breast = tested on: MDA-MB-231 breast
MDA-MB-435 = tested on: MDA-MB-435
MOLT-4 leukemia = tested on: MOLT-4 leukemia
NCI-H226 lung = tested on: NCI-H226 lung
NCI-H23 lung = tested on: NCI-H23 lung
NCI-H460 lung = tested on: NCI-H460 lung
NCI-H522 lung = tested on: NCI-H522 lung
NCI/ADR-RES ovarian = tested on: NCI/ADR-RES ovarian
OVCAR-3 ovarian = tested on: OVCAR-3 ovarian
OVCAR-4 ovarian = tested on: OVCAR-4 ovarian
OVCAR-5 ovarian = tested on: OVCAR-5 ovarian
OVCAR-8 ovarian = tested on: OVCAR-8 ovarian
PC-3 prostate = tested on: PC-3 prostate
RPMI-8226 leukemia = tested on: RPMI-8226 leukemia
RXF 393 renal = tested on: RXF 393 renal
SF-268 CNS = tested on: SF-268 CNS
SF-295 CNS = tested on: SF-295 CNS
SF-539 CNS = tested on: SF-539 CNS
SK-MEL-2 melanoma = tested on: SK-MEL-2 melanoma
SK-MEL-28 melanoma = tested on: SK-MEL-28 melanoma
SK-MEL-5 melanoma = tested on: SK-MEL-5 melanoma
SK-OV-3 ovarian = tested on: SK-OV-3 ovarian
SN12C renal = tested on: SN12C renal
SNB-19 CNS = tested on: SNB-19 CNS
SNB-75 CNS = tested on: SNB-75 CNS
SR leukemia = tested on: SR leukemia
SW-620 colon = tested on: SW-620 colon
T-47D breast = tested on: T-47D breast
TK-10 renal = tested on: TK-10 renal
U251 CNS = tested on: U251 CNS
UACC-257 melanoma = tested on: UACC-257 melanoma
UACC-62 melanoma = tested on: UACC-62 melanoma
UO-31 renal = tested on: UO-31 renal

## COc1ccc(/C=C/C(=O)c2ccc(NC(=O)CSc3nnc(-c4ccc(OC)c(OC)c4)n3-c3ccccc3)cc2)cc1
786-0 renal
  GI50: 1.78 µM
  TGI: 3.66 µM
A498 renal
  GI50: 14.7 µM
  TGI: 28 µM
A549 NSCLC
  GI50: 14.9 µM
  TGI: 31.7 µM
ACHN renal
  GI50: 2.38 µM
  TGI: 6.1 µM
BT-549 breast
  GI50: 1.6 µM
  TGI: 3.49 µM
CCRF-CEM leukemia
  GI50: 1.85 µM
  TGI: 5.36 µM
COLO 205 colon
  GI50: 2.1 µM
  TGI: 4.56 µM
DU-145 prostate
  GI50: 3.21 µM
  TGI: 10.8 µM
EKVX NSCLC
  GI50: 3.05 µM
  TGI: 14.6 µM
HCC-2998 colon
  GI50: 2.97 µM
  TGI: 10.1 µM
HCT-116 colon
  GI50: 1.17 µM
  TGI: 2.66 µM
HCT-15 colon
  GI50: 1.8 µM
  TGI: 4.27 µM
HL-60(TB) leukemia
  GI50: 2.57 µM
  TGI: 11.8 µM
HOP-62 NSCLC
  GI50: 4.36 µM
  TGI: 19.4 µM
HOP-92 NSCLC
  GI50: 1.56 µM
  TGI: 3.45 µM
HS 578T breast
  GI50: 7.68 µM
  TGI: 54.3 µM
HT29 colon
  GI50: 1.86 µM
  TGI: 3.58 µM
K-562 leukemia
  GI50: 3.02 µM
  TGI: 10.8 µM
KM12 colon
  GI50: 2.24 µM
  TGI: 5.54 µM
LOX IMVI melanoma
  GI50: 1.46 µM
  TGI: 2.99 µM
M14 melanoma
  GI50: 1.8 µM
  TGI: 3.9 µM
MALME-3M melanoma
  GI50: 1.75 µM
  TGI: 3.49 µM
MCF7 breast
  GI50: 1.41 µM
  TGI: 5.14 µM
MDA-MB-231 breast
  GI50: 1.73 µM
  TGI: 3.65 µM
MDA-MB-435
  GI50: 1.91 µM
  TGI: 4.13 µM
MOLT-4 leukemia
  GI50: 2.26 µM
  TGI: 9.14 µM
NCI-H226 lung
  GI50: 3.92 µM
  TGI: 24.3 µM
NCI-H23 lung
  GI50: 1.8 µM
  TGI: 4.01 µM
NCI-H460 lung
  GI50: 5.05 µM
  TGI: 18 µM
NCI-H522 lung
  GI50: 1.48 µM
  TGI: 3.17 µM
NCI/ADR-RES ovarian
  GI50: 2.66 µM
  TGI: > 100 µM
OVCAR-3 ovarian
  GI50: 1.72 µM
  TGI: 3.26 µM
OVCAR-4 ovarian
  GI50: 1.96 µM
  TGI: 4.75 µM
OVCAR-5 ovarian
  GI50: 14 µM
  TGI: 28.3 µM
OVCAR-8 ovarian
  GI50: 3.09 µM
  TGI: 14.1 µM
PC-3 prostate
  GI50: 3.09 µM
  TGI: 13.8 µM
RPMI-8226 leukemia
  GI50: 1.72 µM
  TGI: 4.41 µM
RXF 393 renal
  GI50: 1.66 µM
  TGI: 3.35 µM
SF-268 CNS
  GI50: 1.89 µM
  TGI: 4.88 µM
SF-295 CNS
  GI50: 12.2 µM
  TGI: 25.9 µM
SF-539 CNS
  GI50: 1.8 µM
  TGI: 3.31 µM
SK-MEL-2 melanoma
  GI50: 5.03 µM
  TGI: 23.3 µM
SK-MEL-28 melanoma
  GI50: 5.78 µM
  TGI: 19.2 µM
SK-MEL-5 melanoma
  GI50: 1.81 µM
  TGI: 4.12 µM
SK-OV-3 ovarian
  GI50: 13.1 µM
  TGI: 26.3 µM
SN12C renal
  GI50: 2.25 µM
  TGI: 7.09 µM
SNB-19 CNS
  GI50: 3.5 µM
  TGI: 16.9 µM
SNB-75 CNS
  GI50: 2.6 µM
  TGI: 14.9 µM
SR leukemia
  GI50: 0.724 µM
  TGI: 2.78 µM
SW-620 colon
  GI50: 1.96 µM
  TGI: 4.07 µM
T-47D breast
  GI50: 2.54 µM
  TGI: 12.4 µM
TK-10 renal
  GI50: 14.6 µM
  TGI: 28.1 µM
U251 CNS
  GI50: 1.75 µM
  TGI: 3.51 µM
UACC-257 melanoma
  GI50: 12 µM
  TGI: 24.4 µM
UACC-62 melanoma
  GI50: 2.26 µM
  TGI: 6.59 µM
UO-31 renal
  GI50: 1.48 µM
  TGI: 3.84 µM
